The target of one series is topoisomerase II (Cricetulus griseus, UniProt P41515). Nature of the series: Test of inhibition of the activity of topoisomerase II. In kind it is biochemical. The settings on record: for IC50: in vitro, read-out: Test of inhibition of the activity of topoisomerase II (ED50 M). From the text:
Measurement of the inhibition of the activity of topoisomerase II is made according to the procedure described in the literature: "Nuclear topoisomerase II levels correlate with the sensitivity of mammalian cells to intercalating Agents and Epipodophyllotoxins", I. D. Hickson et al., J. Biol. Chem. (1988), 263, 17724.

The conditions of series [1]: background, known drugs; cited from earlier work.
Series [2] can be described thus: Measurement of the water-solubility of the salts. In kind it is physicochemical. The settings on record: read-out: % solubility (weight/volume) expressed in g per 100 ml of water. From the text:
The amorphous or crystalline salts are obtained by simple freeze-drying. [drawing 4] Measurement of the Water-Solubility
The solubility in water of the salts of the phosphate or carboxylate derivatives by addition of physiologically acceptable organic amines such as, for example, N-methylglucamine, triethanolamine or lysine, or the salts with inorganic cations such as sodium, obtained in lyophilized form or by extemporaneous addition of a base to the free acid compound, gave the following results by way of example.

Counter-ions that a name gives are not always drawn. Like-named read-outs stand apart in the source and are kept apart here.

topoisomerase II, sequence (P41515 whole entry): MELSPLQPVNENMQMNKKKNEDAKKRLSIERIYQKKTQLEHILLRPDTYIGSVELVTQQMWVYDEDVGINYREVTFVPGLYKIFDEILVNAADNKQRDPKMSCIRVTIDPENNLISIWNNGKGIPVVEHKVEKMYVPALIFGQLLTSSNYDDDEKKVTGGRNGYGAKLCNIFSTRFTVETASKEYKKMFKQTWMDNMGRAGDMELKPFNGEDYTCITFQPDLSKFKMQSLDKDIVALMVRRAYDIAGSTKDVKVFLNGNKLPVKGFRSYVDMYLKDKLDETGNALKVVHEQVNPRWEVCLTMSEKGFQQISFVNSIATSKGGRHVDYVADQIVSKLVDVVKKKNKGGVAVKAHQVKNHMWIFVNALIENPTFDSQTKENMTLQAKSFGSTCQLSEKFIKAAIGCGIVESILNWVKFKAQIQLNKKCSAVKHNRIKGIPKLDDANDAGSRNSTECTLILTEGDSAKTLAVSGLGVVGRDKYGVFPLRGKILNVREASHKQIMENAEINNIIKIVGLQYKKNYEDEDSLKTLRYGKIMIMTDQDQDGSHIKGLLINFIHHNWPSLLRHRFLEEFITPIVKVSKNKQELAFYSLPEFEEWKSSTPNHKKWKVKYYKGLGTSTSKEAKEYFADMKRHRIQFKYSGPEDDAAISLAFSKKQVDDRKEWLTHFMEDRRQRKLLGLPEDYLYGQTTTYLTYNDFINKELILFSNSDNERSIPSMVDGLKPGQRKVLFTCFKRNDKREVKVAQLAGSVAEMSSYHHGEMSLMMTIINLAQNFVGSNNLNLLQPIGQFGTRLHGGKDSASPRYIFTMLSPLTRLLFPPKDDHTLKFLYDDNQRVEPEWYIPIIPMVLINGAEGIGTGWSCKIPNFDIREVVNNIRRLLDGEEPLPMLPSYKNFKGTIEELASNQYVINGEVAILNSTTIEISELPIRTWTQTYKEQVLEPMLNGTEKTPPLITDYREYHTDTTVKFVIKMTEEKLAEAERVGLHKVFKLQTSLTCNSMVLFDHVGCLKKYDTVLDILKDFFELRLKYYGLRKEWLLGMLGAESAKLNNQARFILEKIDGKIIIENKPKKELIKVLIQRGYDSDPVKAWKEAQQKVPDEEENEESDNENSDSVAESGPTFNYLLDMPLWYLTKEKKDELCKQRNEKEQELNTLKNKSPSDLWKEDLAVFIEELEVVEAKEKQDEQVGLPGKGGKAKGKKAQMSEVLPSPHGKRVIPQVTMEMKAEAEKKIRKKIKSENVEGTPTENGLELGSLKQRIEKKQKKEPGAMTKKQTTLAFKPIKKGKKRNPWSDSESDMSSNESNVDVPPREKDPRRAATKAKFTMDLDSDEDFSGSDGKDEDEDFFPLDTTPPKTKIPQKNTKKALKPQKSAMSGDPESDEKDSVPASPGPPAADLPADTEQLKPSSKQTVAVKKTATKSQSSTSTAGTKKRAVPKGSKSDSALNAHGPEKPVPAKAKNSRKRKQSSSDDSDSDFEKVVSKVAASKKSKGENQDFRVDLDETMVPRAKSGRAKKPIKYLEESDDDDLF

`COc1cc([C@@H]2c3cc4c(cc3[C@@H](O[C@@H]3O[C@@H]5CO[C@@H](C)O[C@H]5[C@H](O)[C@H]3O)[C@H]3COC(=O)[C@H]23)OCO4)cc(OC)c1OP(=O)(O)O` [Etopofos, reference compound]: the IC50 on topoisomerase II was greater than 100 µM. Besides, the “in vitro activity compared with etoposide (in words)” value on topoisomerase II (relative to etoposide) is given as “loss of in vitro activity”.
On to `COc1cc([C@@H]2c3cc4c(cc3[C@@H](O[C@@H]3O[C@@H]5CO[C@@H](C)O[C@H]5[C@H](O)[C@H]3O)[C@H]3COC(=O)[C@H]23)OCO4)cc(OC)c1O` [Etoposide, reference compound], for which the IC50 on topoisomerase II was 56 µM. For the same compound, the “water-solubility (in words)” value in series [1] is “lack of water-solubility”.
Take `COc1cc([C@@H]2c3cc4c(cc3[C@@H](O[C@@H]3O[C@@H]5CO[C@@H](C)O[C@H]5[C@H](OC(=O)COc5ccccc5)[C@H]3OC(=O)COc3ccccc3)[C@H]3COC(=O)[C@H]23)OCO4)cc(OC)c1OP(=O)(O)O` [Example 1, 4'-demethyl-4-O-(2,3-bisphenoxyacetyl-4,6-ethylidene-β-D-glucosyl)epipodophyllotoxin-4'-deoxy-4'-phosphate]: the IC50 at topoisomerase II was found to be 5.6 µM. Also, in series [2] (N-methylglucamine salt), the solubility is 5 mg/mL.
Turning to `COc1cc([C@@H]2c3cc4c(cc3[C@@H](O[C@@H]3O[C@@H]5CO[C@@H](C)O[C@H]5[C@H](OC(=O)COc5ccc(OC(F)(F)F)cc5)[C@H]3OC(=O)COc3ccc(OC(F)(F)F)cc3)[C@H]3COC(=O)[C@H]23)OCO4)cc(OC)c1OP(=O)(O)O` [Example 3, 4'-demethyl-4-O-(2,3-bis-(4-trifluoromethoxyphenoxyacetyl)-4,6-ethylidene-β-D-gluocosyl)epipodophyllotoxin-4'-deoxy-4'-phosphate, bis(N-methylglucamine) Salt], at topoisomerase II, the IC50 was 0.32 µM. Besides, in series [2] (N-methylglucamine salt), the solubility stood at 50 mg/mL.
Turning to `COc1cc([C@@H]2c3cc4c(cc3[C@@H](O[C@@H]3O[C@@H]5CO[C@@H](C)O[C@H]5[C@H](OC(=O)COc5ccc(F)cc5)[C@H]3OC(=O)COc3ccc(F)cc3)[C@H]3COC(=O)[C@H]23)OCO4)cc(OC)c1OP(=O)(O)O` [Example 4, 4'-demethyl-4-O-(2,3-bis(4-fluorophenoxyacetyl)-4,6-ethylidene-β-D-glucosyl)epipodophyllotoxin-4'-deoxy-4'-phosphate bis(N-methylglucamine) Salt], the IC50 on topoisomerase II was determined as 1.8 µM. Besides, the solubility in series [2] (N-methylglucamine salt) came out at 100 mg/mL.
For the compound `COc1cc([C@@H]2c3cc4c(cc3[C@@H](O[C@@H]3O[C@@H]5CO[C@@H](C)O[C@H]5[C@H](OC(=O)COc5ccc(OP(=O)(O)O)cc5)[C@H]3OC(=O)COc3ccc(OP(=O)(O)O)cc3)[C@H]3COC(=O)[C@H]23)OCO4)cc(OC)c1OC(=O)COc1ccc(OP(=O)(O)O)cc1` [Example 6, 4'-(4-phosphonooxyphenoxyacetyl)-4'-demethyl-4-O-(2,3-bis(4-phosphonooxyphenoxyacetyl)-4,6-ethylidene-β-D-glucosyl)epipodophyllotoxin], the IC50 on topoisomerase II was 0.32 µM. Besides, the solubility in series [2] (N-methylglucamine salt) is 100 mg/mL; in series [2] (Sodium salt) it was 10 mg/mL; in series [2] (lysine salt), 200 mg/mL; in series [2] (triethanolamine salt) it was 200 mg/mL.
`COc1cc([C@@H]2c3cc4c(cc3[C@@H](O[C@@H]3O[C@@H]5CO[C@@H](C)O[C@H]5[C@H](OC(=O)COc5ccc(OP(=O)(O)O)cc5)[C@H]3OC(=O)COc3ccc(OP(=O)(O)O)cc3)[C@H]3COC(=O)[C@H]23)OCO4)cc(OC)c1OP(=O)(O)O` [Example 7, 4'-demethyl-4-O-(2,3-bis(4-phosphonooxyphenoxyacetyl)-4,6-ethylidene-β-D-glucosyl)epipodophyllotoxin-4'-deoxy-4'-phosphate]: the IC50 on topoisomerase II amounted to 56 µM. Moreover, the solubility in series [2] (N-methylglucamine salt) was 100 mg/mL.
For `COc1cc([C@@H]2c3cc4c(cc3[C@@H](O[C@@H]3O[C@@H]5CO[C@@H](C)O[C@H]5[C@H](OC(=O)COc5ccc(O)cc5)[C@H]3OC(=O)COc3ccc(O)cc3)[C@H]3COC(=O)[C@H]23)OCO4)cc(OC)c1OC(=O)N(CC(=O)O)CC(=O)O` [Example 11, 4'-(dicarboxymethylaminocarbonyl)-4'-demethyl-4-O-(2,3-bis(p-hydroxyphenoxyacetyl)-4,6-ethylidene-β-D-glucosyl)epipodophyllotoxin], in that order: 5.6 µM and 100 mg/mL.
For `COc1cc([C@@H]2c3cc4c(cc3[C@@H](O[C@@H]3O[C@@H]5CO[C@@H](C)O[C@H]5[C@H](OC(=O)CS(=O)(=O)c5ccccc5)[C@H]3OC(=O)CS(=O)(=O)c3ccccc3)[C@H]3COC(=O)[C@H]23)OCO4)cc(OC)c1OP(=O)(O)O` [Example 21, 4'-demethyl-4'-deoxy-4'-phosphate-4-O-(2,3-bis(phenylsulfonylacetyl)-4,6-ethylidene-β-D-glucosyl)epipodophyllotoxin], in that order: 5.6 µM and 100 mg/mL.
As for `COc1cc([C@@H]2c3cc4c(cc3[C@@H](O[C@@H]3O[C@@H]5CO[C@@H](C)O[C@H]5[C@H](OC(=O)COc5ccc(OCC(=O)O)cc5)[C@H]3OC(=O)COc3ccc(OCC(=O)O)cc3)[C@H]3COC(=O)[C@H]23)OCO4)cc(OC)c1OC(=O)COc1ccc(OCC(=O)O)cc1` [Example 26, 4'-demethyl-4'-carboxymethoxyphenoxyacetyl-4-O-(2,3-bis(4-carboxymethoxyphenoxyacetyl)-4,6-ethylidene-β-D-glucosyl)epipodophyllotoxin], the IC50 on topoisomerase II is 5.6 µM. In series [2] (N-methylglucamine salt), the solubility was 100 mg/mL.
Take `COc1cc([C@@H]2c3cc4c(cc3[C@@H](O[C@@H]3O[C@@H]5CO[C@@H](C)O[C@H]5[C@H](OC(=O)COc5ccc(Cl)cc5)[C@H]3OC(=O)COc3ccc(Cl)cc3)[C@H]3COC(=O)[C@H]23)OCO4)cc(OC)c1OP(=O)(O)O` [Example 27, 4'-demethyl-4'-deoxy-4'-phosphate-4-O-(2,3-bis(4-chlorophenoxyacetyl)-4,6-ethylidene-β-D-glucosyl)epipodophyllotoxin]: the IC50 on topoisomerase II was 0.76 µM. Besides, the solubility in series [2] (N-methylglucamine salt) was 5 mg/mL.
For `COc1cc([C@@H]2c3cc4c(cc3[C@@H](O[C@@H]3O[C@@H]5CO[C@@H](c6cccs6)O[C@H]5[C@H](O)[C@H]3O)[C@H]3COC(=O)[C@H]23)OCO4)cc(OC)c1O` [teniposide], the “water-solubility (in words)” value in series [1] is given as “lack of water-solubility”.
